Measured values from patent publication US20210261512A1, “NOVEL COMPOUNDS” (INFLAZOME LIMITED, priority 2018, published 2021).

target: NLRP3 (Homo sapiens, UniProt Q96P20); test: THP-1 cells pyroptosis assay; format: cell-based; design: Seed THP-1 cells (25,000 cells/well) containing 1.0 μg/ml LPS; host or cells: THP-1; conditions: LPS 1.0 μg/ml, nigericin 5 μM, resazurin readout, 10 μM top dose (Example 2: top dose of 30 μM)
Outline: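 THP-1 cells (25,000/well) primed with 1 μg/ml LPS in serum-free RPMI, treated with compound (8-point dilution, 10 μM top unless stated; 0.1% DMSO) 3 h at 37°C, then nigericin 5 μM 1 h. Viability read by resazurin (100 μM, 1-2 h) fluorescence; IC50 from 4-parameter fit.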

Sequence of NLRP3 (Q96P20 whole entry): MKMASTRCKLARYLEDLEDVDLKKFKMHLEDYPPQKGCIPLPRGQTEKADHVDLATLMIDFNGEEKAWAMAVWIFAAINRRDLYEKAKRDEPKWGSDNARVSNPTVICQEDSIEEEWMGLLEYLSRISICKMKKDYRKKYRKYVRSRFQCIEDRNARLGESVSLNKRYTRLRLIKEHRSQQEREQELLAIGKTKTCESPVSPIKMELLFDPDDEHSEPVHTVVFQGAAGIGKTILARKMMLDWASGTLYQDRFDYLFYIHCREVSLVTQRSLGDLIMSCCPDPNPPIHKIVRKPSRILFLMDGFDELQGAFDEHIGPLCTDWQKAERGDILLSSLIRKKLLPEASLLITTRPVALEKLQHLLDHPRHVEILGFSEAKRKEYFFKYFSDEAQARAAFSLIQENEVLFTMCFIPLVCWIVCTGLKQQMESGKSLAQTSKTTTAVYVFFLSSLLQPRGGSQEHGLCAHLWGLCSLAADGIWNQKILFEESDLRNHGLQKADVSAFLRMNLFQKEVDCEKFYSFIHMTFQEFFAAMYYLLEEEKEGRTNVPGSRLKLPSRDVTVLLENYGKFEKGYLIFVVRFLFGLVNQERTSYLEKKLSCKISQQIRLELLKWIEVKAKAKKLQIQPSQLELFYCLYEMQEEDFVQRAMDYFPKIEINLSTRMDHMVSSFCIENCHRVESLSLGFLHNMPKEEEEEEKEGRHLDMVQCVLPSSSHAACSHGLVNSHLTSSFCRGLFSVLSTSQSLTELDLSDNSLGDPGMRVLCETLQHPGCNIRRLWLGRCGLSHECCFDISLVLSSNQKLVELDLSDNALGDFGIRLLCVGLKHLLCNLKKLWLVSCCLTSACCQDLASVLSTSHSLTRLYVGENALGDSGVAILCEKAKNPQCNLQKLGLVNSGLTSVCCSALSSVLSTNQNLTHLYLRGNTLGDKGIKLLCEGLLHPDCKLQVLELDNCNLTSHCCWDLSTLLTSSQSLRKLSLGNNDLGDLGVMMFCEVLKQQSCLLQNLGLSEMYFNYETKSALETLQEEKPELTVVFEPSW

SMILES | IC50 [µM]
CN1CCC(NS(=O)(=O)c2nnc(Nc3c4c(cc5c3CCC5)CCC4)[nH]2)CC1 [Example 102, 5-((1,2,3,5,6,7-hexahydro-s-indacen-4-yl)amino)-N-(1-methylpiperidin-4-yl)-4H-1,2,4-triazole-3-sulfonamide] | ≤ 10
CN1CCCC1CS(=O)(=O)c1nnc(Nc2c3c(cc4c2CCC4)CCC3)[nH]1 (centres unmarked) [Example 61, N-(1,2,3,5,6,7-hexahydro-s-indacen-4-yl)-3-(((1-methylpyrrolidin-2-yl)methyl)sulfonyl)-1H-1,2,4-triazol-5-amine] | ≤ 10
COC(=O)CN(CCN)S(=O)(=O)c1nnc(Nc2c3c(cc4c2CCC4)CCC3)[nH]1 [Example 111, methyl 2-(N-(2-aminoethyl)-5-((1,2,3,5,6,7-hexahydro-s-indacen-4-yl)amino)-4H-1,2,4-triazole-3-sulfonamido)acetate] | ≤ 10
COC1(c2cc([S+]([O-])c3nnc(Nc4c5c(cc6c4CCC6)CCC5)[nH]3)nn2C(C)C)COC1 (centres unmarked) [Example 25, N-(1,2,3,5,6,7-hexahydro-s-indacen-4-yl)-5-((1-isopropyl-5-(3-methoxyoxetan-3-yl)-1H-pyrazol-3-yl)sulfinyl)-4H-1,2,4-triazol-3-amine] | ≤ 10
CC(C)CCNS(=O)(=O)c1nnc(Nc2c3c(cc4c2CCC4)CCC3)[nH]1 [Example 82, 5-((1,2,3,5,6,7-hexahydro-s-indacen-4-yl)amino)-N-isopentyl-1H-1,2,4-triazole-3-sulfonamide] | ≤ 10
O=S(=O)(Cc1cccnc1)c1nnc(Nc2c3c(cc4c2CCC4)CCC3)[nH]1 [Example 73, N-(1,2,3,5,6,7-hexahydro-s-indacen-4-yl)-3-((pyridin-3-ylmethyl)sulfonyl)-1H-1,2,4-triazol-5-amine] | ≤ 10
COc1cc(-c2c(C)cccc2Nc2nnc(S(=O)(=O)N3CCC(N(C)C)CC3)[nH]2)ccn1 [Example 208, 1-((5-((2-(2-methoxypyridin-4-yl)-3-methylphenyl)amino)-4H-1,2,4-triazol-3-yl)sulfonyl)-N,N-dimethylpiperidin-4-amine] | ≤ 10
COCCNS(=O)(=O)c1nnc(Nc2c3c(cc4c2CCC4)CCC3)[nH]1 [Example 83, 5-((1,2,3,5,6,7-hexahydro-s-indacen-4-yl)amino)-N-(2-methoxyethyl)-4H-1,2,4-triazole-3-sulfonamide] | ≤ 10
O=S(=O)(c1nnc(Nc2c3c(cc4c2CCC4)CCC3)[nH]1)N1CCn2cncc2C1 [Example 281, 5-((5,6-dihydroimidazo[1,5-a]pyrazin-7 (8H)-yl)sulfonyl)-N-(1,2,3,5,6,7-hexahydro-s-indacen-4-yl)-4H-1,2,4-triazol-3-amine] | ≤ 10
Cc1cc2c(c(Nc3nnc(S(=O)(=O)N4CCC(N(C)C)CC4)[nH]3)c1-c1ccnc(OC3CCN(C)CC3)c1)CCC2 [Example 316, N,N-dimethyl-1-((5-((6-methyl-5-(2-((1-methylpiperidin-4-yl)oxy)pyridin-4-yl)-2,3-dihydro-1H-inden-4-yl)amino)-4H-1,2,4-triazol-3-yl)sulfonyl)piperidin-4-amine] | ≤ 5
O=S(=O)(c1nnc(Nc2c3c(cc4c2CCC4)CCC3)[nH]1)N1CCCC2(CCOC2)C1 (centres unmarked) [Example 313, 5-(2-oxa-7-azaspiro[4.5]decan-7-ylsulfonyl)-N-(1,2,3,5,6,7-hexahydro-s-indacen-4-yl)-4H-1,2,4-triazol-3-amine] | ≤ 5
CN1CCN(C2CCN(S(=O)(=O)c3nnc(Nc4c5c(cc6c4CCC6)CCC5)[nH]3)CC2)CC1 [Example 135, N-(1,2,3,5,6,7-hexahydro-s-indacen-4-yl)-5-((4-(4-methylpiperazin-1-yl)piperidin-1-yl)sulfonyl)-4H-1,2,4-triazol-3-amine] | ≤ 5
COCC1CCN(S(=O)(=O)c2nnc(Nc3c4c(cc5c3CCC5)CCC4)[nH]2)C1 (centres unmarked) [Example 283, N-(1,2,3,5,6,7-hexahydro-s-indacen-4-yl)-5-((3-(methoxymethyl)pyrrolidin-1-yl)sulfonyl)-4H-1,2,4-triazol-3-amine] | ≤ 5

More lines, now with the values ahead:

IC50 [µM] | SMILES
≤ 0.5 | CC(C)(O)c1ccc(S(=O)(=O)c2nnc(Nc3c4c(cc5c3CCC5)CCC4)[nH]2)cc1 [Example 186, 2-(4-((5-((1,2,3,5,6,7-hexahydro-s-indacen-4-yl)amino)-4H-1,2,4-triazol-3-yl)sulfonyl)phenyl) propan-2-01]
≤ 5 | CN1CCCC(CS(=O)(=O)c2nnc(Nc3c4c(cc5c3CCC5)CCC4)[nH]2)C1 (centres unmarked) [Example 58, N-(1,2,3,5,6,7-hexahydro-s-indacen-4-yl)-3-(((1-methylpiperidin-3-yl)methyl)sulfonyl)-1H-1,2,4-triazol-5-amine]
≤ 1 | CC(=O)c1c2c(c(Nc3nnc(S(=O)(=O)N4CCC(N(C)C)CC4)[nH]3)c3c1CCC3)CCC2 [Example 232, 1-(8-((5-((4-(dimethylamino)piperidin-1-yl)sulfonyl)-4H-1,2,4-triazol-3-yl)amino)-1,2,3,5,6,7-hexahydro-s-indacen-4-yl)ethan-1-one]
≤ 5 | CC(=O)NCCNS(=O)(=O)c1nnc(Nc2c3c(cc4c2CCC4)CCC3)[nH]1 [Example 115, N-(2-(5-((1,2,3,5,6,7-hexahydro-s-indacen-4-yl)amino)-4H-1,2,4-triazole-3-sulfonamido)ethyl)acetamide]
≤ 5 | CCNCCCS(=O)(=O)c1nnc(Nc2c3c(cc4c2CCC4)CCC3)[nH]1 [Example 55, 5-((3-(ethylamino)propyl)sulfonyl)-N-(1,2,3,5,6,7-hexahydro-s-indacen-4-yl)-4H-1,2,4-triazol-3-amine]
≤ 5 | CN1CCCC(COc2cc(-c3ccc4c(c3Nc3nnc(S(C)(=O)=O)[nH]3)CCC4)ccn2)C1 (centres unmarked) [Example 359, N-(5-(2-((1-methylpiperidin-3-yl)methoxy)pyridin-4-yl)-2,3-dihydro-1H-inden-4-yl)-5-(methylsulfonyl)-4H-1,2,4-triazol-3-amine]
≤ 5 | COc1cc(-c2ccc3c(c2Nc2nnc(S(=O)(=O)c4ccccc4)[nH]2)CCC3)ccn1 [Example 372, N-(5-(2-methoxypyridin-4-yl)-2,3-dihydro-1H-inden-4-yl)-5-(phenylsulfonyl)-1H-1,2,4-triazol-3-amine]
≤ 5 | COCC(C)Oc1cc(-c2ccc3c(c2Nc2nnc(S(C)(=O)=O)[nH]2)CCC3)ccn1 (centres unmarked) [Example 237, N-(5-(2-((1-methoxypropan-2-yl)oxy)pyridin-4-yl)-2,3-dihydro-1H-inden-4-yl)-5-(methylsulfonyl)-4H-1,2,4-triazol-3-amine]
≤ 5 | COc1cc(-c2c(C)cc3c(c2Nc2nnc(S(C)(=O)=O)[nH]2)CCC3)ccn1 [Example 312, N-(5-(2-methoxypyridin-4-yl)-6-methyl-2,3-dihydro-1H-inden-4-yl)-5-(methylsulfonyl)-4H-1,2,4-triazol-3-amine]
≤ 5 | O=S(=O)(c1ccnnc1)c1n[nH]c(Nc2c3c(cc4c2CCC4)CCC3)n1 [Example 168, N-(1,2,3,5,6,7-hexahydro-s-indacen-4-yl)-3-(pyridazin-4-ylsulfonyl)-1H-1,2,4-triazol-5-amine]
≤ 5 | CN1CCN(S(=O)(=O)c2nnc(Nc3c4c(cc5c3CCC5)CCC4)[nH]2)CC1 [Example 100, N-(1,2,3,5,6,7-hexahydro-s-indacen-4-yl)-5-((4-methylpiperazin-1-yl)sulfonyl)-4H-1,2,4-triazol-3-amine]
≤ 0.5 | N#Cc1ccccc1S(=O)(=O)c1nnc(Nc2c3c(cc4c2CCC4)CCC3)[nH]1 [Example 185, 2-((5-((1,2,3,5,6,7-hexahydro-s-indacen-4-yl)amino)-4H-1,2,4-triazol-3-yl)sulfonyl)benzonitrile]
≤ 5 | O=S(=O)(c1nnc(Nc2c3c(cc4c2CCC4)CCC3)[nH]1)N1CCC2(CCNC2)CC1 [Example 266, 5-((2,8-diazaspiro[4.5]decan-8-yl)sulfonyl)-N-(1,2,3,5,6,7-hexahydro-s-indacen-4-yl)-4H-1,2,4-triazol-3-amine]
≤ 5 | O=S(=O)(c1nnc(Nc2c3c(cc4c2CCC4)CCC3)[nH]1)N1CC2(CCN(CC(F)(F)F)C2)C1 [Example 263, N-(1,2,3,5,6,7-hexahydro-s-indacen-4-yl)-5-((6-(2,2,2-trifluoroethyl)-2,6-diazaspiro[3.4]octan-2-yl)sulfonyl)-4H-1,2,4-triazol-3-amine]
≤ 5 | O=S(=O)(NCCN1CCOCC1)c1nnc(Nc2c3c(cc4c2CCC4)CCC3)[nH]1 [Example 129, 5-((1,2,3,5,6,7-hexahydro-s-indacen-4-yl)amino)-N-(2-morpholinoethyl)-4H-1,2,4-triazole-3-sulfonamide]
≤ 5 | CN1CCN(CCNS(=O)(=O)c2nnc(Nc3c4c(cc5c3CCC5)CCC4)[nH]2)CC1 [Example 131, 5-((1,2,3,5,6,7-hexahydro-s-indacen-4-yl)amino)-N-(2-(4-methylpiperazin-1-yl)ethyl)-4H-1,2,4-triazole-3-sulfonamide]
≤ 5 | COC1(c2cc(S(=O)(=O)c3nnc(Nc4c5c(cc6c4CCC6)CCC5)[nH]3)nn2C2CC2)COC1 [Example 16, 5-((1-cyclopropyl-5-(3-methoxyoxetan-3-yl)-1H-pyrazol-3-yl)sulfonyl)-N-(1,2,3,5,6,7-hexahydro-s-indacen-4-yl)-4H-1,2,4-triazol-3-amine]
≤ 5 | CN1CC2(CCN(S(=O)(=O)c3nnc(Nc4c5c(cc6c4CCC6)CCC5)[nH]3)CC2)C1 [Example 280, N-(1,2,3,5,6,7-hexahydro-s-indacen-4-yl)-5-((2-methyl-2,7-diazaspiro[3.5]nonan-7-yl)sulfonyl)-4H-1,2,4-triazol-3-amine]
≤ 1 | CC(c1cc(S(=O)(=O)c2nnc(Nc3c4c(cc5c3CCC5)CCC4)[nH]2)nn1C(C)C)N(C)C (centres unmarked) [Example 8, 5-((5-(1-(dimethylamino)ethyl)-1-isopropyl-1H-pyrazol-3-yl)sulfonyl)-N-(1,2,3,5,6,7-hexahydro-s-indacen-4-yl)-4H-1,2,4-triazol-3-amine]
